Literature values in patent publication US6476071B1, “Correcting polymorphic metabolic dysfunction with (−)-hydroxycitric acid” (priority 2001, dated 2002).

Legend:
[1] = system: rats; settings: after a three hour meal
[2] = system: animals; settings: 70% glucose diet, as long as 80 days

O=C([O-])CC(O)(C(=O)[O-])C(O)C(=O)[O-].[Na+].[Na+].[Na+] (stereo not drawn) [trisodium salt of (−)-hydroxycitric acid]
contents of the stomach, % of control [1]: 223 % of control | contents of the stomach ([1]; controls 884±145): 1973±154 dpm×10^3 | body weight after disappearance of appetite control [2]: maintained a reduced weight
